Measurements from patent publication US5470877A, “Uses of perillic acid methyl ester” (Wisconsin Alumni Research Foundation, priority 1994, dated 1995).

Legend:
NIH3T3 cells = assay: NIH3T3 cell growth inhibition (FIG. 3); format: cell-based, mouse; settings: NIH3T3 (murine) cells
Protocol: NIH3T3 (mouse embryo) cells were obtained from the American Type Culture Collection and were grown in Dulbecco's modified Eagle's medium supplemented with 10% calf serum. M600B immortalized human mammary epithelial cells (Stampfer, M.R., 1985, J. Tissue Culture Methods 9:107-115) were, obtained from Dr. Martha Stampfer and were grown in supplemented HCDB 170 medium (Hammond, et al. (1984) Proc. Natl. Acad. Sci U.S.A. 81:5435-5439), as described previously (Stampfer, et al. (1985) Proc. Natl. Acad. Sci U.S.A. 82:2394-2398; Eldridge, et al. (1989) Cancer Res. 49:4326-4331).
All cells were maintained in 100-mm dishes at 37° C. in a humidified 5% CO2 atmosphere. Viable cells were distinguished from nonviable cells by counting azure II/methylene blue-stained colonies 10 days after the cells were plated at a density of 100 cells per dish. Trypan blue exclusion was measured by incubating cells for 1 min with one drop of trypan blue per 10 ml of cells. Viable (colorless) and nonviable (blue) cells were then counted on a hemocytometer.
We examined the effect of several of the terpenes on certain types of cell growth. […] Additionally, growth of HT29 (human colon adenocarcinoma) cells was inhibited by 80% by 1 mM perillyl alcohol.

21-26 kDa proteins = assay: Protein isoprenylation inhibition in NIH3T3 cells (SDS-PAGE fluorography); format: cell-based, mouse
Protocol: "Isoprenylation" is the addition of a multiple of the 5 carbon isoprene unit to a protein. Our experiments in isoprenylation are reported at Crowell, et al. 1991, J. Biol. Chem. 266:17679-17685. To test whether a specific monoterpene affects isoprenylation of proteins in cells, […] were incubated with a radioactive isoprene precursor and 0-5 mM of the test monoterpene and then subjected to SDS-PAGE. Because they carried a radioactive label, isoprenylated proteins were visualized by fluorography. As a control, cells were incubated without the monoterpene.
Cells were harvested after trypsin treatment, washed twice with phosphate-buffered saline, suspended in electrophoresis sample buffer (Laemmli, U.K., 1970, Nature 227:680-685), and either analyzed immediately or stored at -20° C. Whole cell extracts were analyzed by SDS-PAGE on 16-cm×18-cm×0.75-mm gels by the method of Laemmli (supra). The acrylamide concentrations were 5% for the stacking gel and 12% for the separating gel. Gels were stained with Coomassie Brilliant Blue, equilibrated for 20 min in Amplify (Amersham Corp.) fluorographic reagent, dried under vacuum at 65° C., and exposed to preflashed Kodak X-Omat AR film as described by Laskey and Mills (1975, Eur. J. Biochem, 56:335-341). Some fluorograms were analyzed further by densitometry. Where indicated, gels were sliced, dissolved at 50° C. for 3 hours in 0.5 ml of water+0.5 ml of Solvable (Amersham), and then analyzed by scintillation spectrometry in 10 ml of Atom light (Amersham) mixture. Protein content was measured by the method of Lowry, et al. (1951, J. Biol. Chem. 193:265-275).
FIG. 1 depicts the structures of certain monoterpenes.
The degree of isoprenylation was evaluated by the amount of labeled protein present in the 21-26 kDa range, as evidenced by fluorography.

[1] = Tolerability in nude mice (National Cancer Institute); format: in vivo
Protocol: In an extension of our work, the National Cancer Institute has studied the effect of perillyl alcohol doses in nude mice using an oral bid ×14 day schedule. […] Perillyl alcohol was also administered in PEG400 at the same dose levels.

rat mammary carcinoma = assay: Comparison of dietary perillyl alcohol and perillic acid methyl ester as inducers of rat mammary carcinoma regression; format: in vivo, Wistar-Furth rat; settings: for no regression (tumors) / no response / partial regression >1/2 original diameter (%) / partial regression >1/2 original diameter (tumors) / small regression response / some growth of tumor: 6 weeks
Protocol: Inbred female Wistar-Furth rats were given 50 mg/kg DMBA at 50-55 days of age. Upon development of a mammary tumor with the largest diameter≥10 mm, the rat was assigned to 0.5% perillic acid methyl ester diet and fed ad libitum. The 0.5% perillic acid methyl ester diet (weight compound/weight ground Teklad rat/mouse 4% meal/chow) was prepared fresh every 7-10 days. Fresh diet was given to rats daily. All rats were weighed and palpated weekly. The study was terminated at 6 weeks after initial diet administration. The following tumor regression data was acquired:
We compared the effects of PAME and POH in terms of their ability to regress rat mammary carcinomas. Table 8 records our comparison. In summary, a 0.5% PAME diet was effective, while a 0.5% POH diet was only 10% effective. Diets of 2% POH were roughly 64-70% effective. While 2% POH is tolerated by a mammal, on a practical level PAME is preferred because a lower dose is sufficient.

[2] = 0.5% POH diet, first comparison
[3] = 1.0% POH diet, first comparison
[4] = 1.5% POH diet, first comparison
[5] = 2.0% POH diet, first comparison
[6] = 2.0% POH diet, second comparison

C=C(C)[C@@H]1CC=C(CO)CC1 [perillyl alcohol]
inhibition of cell growth (NIH3T3 cells): significantly inhibited cell growth in a dose-dependent manner | ability to inhibit isoprenylation within test panel (21-26 kDa proteins; 1 mM, 21-26 kDa range): greatest ability to inhibit isoprenylation | inhibition of isoprenylation in all cases examined (21-26 kDa proteins; all cell types examined): inhibition of isoprenylation | weight loss ([1]; 0.5 g/kg/treatment oral bid, sesame oil): No weight loss | course of weight loss ([1]; 1.0 gram/kg/treatment oral bid, after day 10): the weight loss leveled off | average body weight lost ([1]; 1.0 gram/kg/treatment oral bid, diluted 1:1 in sesame oil, day 10): 3 g | lethality ([1]; in PEG400, same dose levels): Lethality was observed | no regression (tumors) (rat mammary carcinoma; [2]): 18/20 | no response (rat mammary carcinoma; [2]): 1/20 | partial regression >1/2 original diameter (%) (rat mammary carcinoma; [2]): 10% | partial regression >1/2 original diameter (tumors) (rat mammary carcinoma; [2]): 2/20 | small regression response (rat mammary carcinoma; [2]): 2/20 | some growth of tumor (rat mammary carcinoma; [2]): 15/20 | no regression (tumors) (rat mammary carcinoma; [3]): 15/20 | no response (rat mammary carcinoma; [3]): 2/20 | partial regression >1/2 original diameter (%) (rat mammary carcinoma; [3]): 25% | partial regression >1/2 original diameter (tumors) (rat mammary carcinoma; [3]): 5/20 | small regression response (rat mammary carcinoma; [3]): 2/20 | some growth of tumor (rat mammary carcinoma; [3]): 11/20 | no regression (tumors) (rat mammary carcinoma; [4]): 15/21 | no response (rat mammary carcinoma; [4]): 7/21 | partial regression >1/2 original diameter (%) (rat mammary carcinoma; [4]): 29% | partial regression >1/2 original diameter (tumors) (rat mammary carcinoma; [4]): 6/21 | small regression response (rat mammary carcinoma; [4]): 7/21 | some growth of tumor (rat mammary carcinoma; [4]): 4/21 | no regression (tumors) (rat mammary carcinoma; [5]): 6/20 | no response (rat mammary carcinoma; [5]): 1/20 | partial regression >1/2 original diameter (%) (rat mammary carcinoma; [5]): 70% | partial regression >1/2 original diameter (tumors) (rat mammary carcinoma; [5]): 14/20 | small regression response (rat mammary carcinoma; [5]): 2/20 | some growth of tumor (rat mammary carcinoma; [5]): 3/20 | no regression (tumors) (rat mammary carcinoma; [6]): 4/11 | no response (rat mammary carcinoma; [6]): 2/11 | partial regression >1/2 original diameter (%) (rat mammary carcinoma; [6]): 64% | partial regression >1/2 original diameter (tumors) (rat mammary carcinoma; [6]): 7/11 | small regression response (rat mammary carcinoma; [6]): 1/11 | some growth of tumor (rat mammary carcinoma; [6]): 1/11 | effectiveness of diet (%) (rat mammary carcinoma; 2% POH diets): 64-70% | weight loss (rat mammary carcinoma; rats fed PAME or POH diet): did experience weight loss | regression rate (rat mammary carcinoma; rats fed a 1% diet): 55%
